Experimental data as given in patent publication US8362000B2, “Azetidinyl diamides as monoacylglycerol lipase inhibitors” (Janssen Pharmaceutica NV, priority 2009, dated 2013).
Where a chain is given by its changes, count along the chain named. Like-named read-outs stand apart in the source and are kept apart here.

Columns and labels:
mutant MGL = target: T1, mutant MGL (Homo sapiens, UniProt Q99685, L169S/L176S); test: MGL ThermoFluor assay - mutant; format: binding
T1 sequence (Q99685 1-303 L169S/L176S): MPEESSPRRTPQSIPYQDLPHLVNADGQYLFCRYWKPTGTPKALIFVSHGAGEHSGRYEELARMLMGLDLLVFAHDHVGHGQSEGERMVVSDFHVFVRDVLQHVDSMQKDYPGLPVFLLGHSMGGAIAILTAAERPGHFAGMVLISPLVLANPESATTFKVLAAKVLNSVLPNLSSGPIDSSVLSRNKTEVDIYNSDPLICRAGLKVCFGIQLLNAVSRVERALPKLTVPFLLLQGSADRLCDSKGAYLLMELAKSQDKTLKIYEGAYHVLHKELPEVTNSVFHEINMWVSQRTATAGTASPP

[1] = target: T2, purified wild type MGL (wt-MGLL 6H-11-313) (Homo sapiens, UniProt Q99685)
T2 sequence (Q99685 1-303): T1 sequence (Q99685 1-303 L169S/L176S) with S169L, S176L

[2] = compound concentration measured by qNMR, read-out: MGL mutant ThermoFluor qKd (using qNMR conc.)
[3] = ThermoFluor, compound concentration measured by qNMR, read-out: MGL mutant ThermoFluor qKd (using qNMR conc.)
[4] = ThermoFluor thermal stability binding assay, read-out: MGL mutant ThermoFluor Kd
[5] = ThermoFluor, compound concentration measured by qNMR, read-out: MGL mutant ThermoFluor qKd (μM) (using qNMR conc.)
[6] = ThermoFluor concentration-response, read-out: MGL mutant ThermoFluor Kd

| Compound | IC50 [1] [nM] | Kd (mutant MGL; [6]) [µM] | other results |
| --- | --- | --- | --- |
| O=C(c1ccc2nc(-c3ccccn3)sc2c1)N1CC(N2CCN(C(=O)c3nccs3)CC2)C1 [Cpd 1165] | 51 |  | Kd (mutant MGL; [5]): 0.09 µM |
| Cc1nc2cc(C(=O)N3CC(N4CCN(C(=O)c5cscn5)CC4)C3)ccc2n1-c1ccc(C(F)(F)F)cc1 [Cpd 1289] | 2600 |  | Kd (mutant MGL; [2]): 0.13 µM |
| O=C(c1cc2ccc(C(F)(F)F)nc2o1)N1CCN(C2CN(C(=O)c3nccs3)C2)CC1 [Cpd 860] | 8820 | 1.76 |  |
| O=C(c1cc2cc(C(F)(F)F)ccc2[nH]1)N1CCN(C2CN(C(=O)c3nccs3)C2)CC1 [Cpd 747] | 377 | 0.111 |  |
| Cc1nc2ccc(Cl)cc2cc1C(=O)N1CC(N2CCN(C(=O)c3nccs3)CC2)C1 [Cpd 835] | 4700 |  | Kd (mutant MGL; [3]): 2.45 µM |
| O=C(c1ccc(-c2cccc(C(F)(F)F)c2)cc1)N1CC(N2CCN(C(=O)c3ccc(Cl)o3)CC2)C1 [Cpd 1078] | 9 |  | Kd (mutant MGL; [5]): 0.005 µM |
| Cc1nc2cc(C(=O)N3CC(N4CCN(C(=O)c5nccs5)CC4)C3)ccc2n1CC(F)(F)F [Cpd 789] | 1370 |  | Kd (mutant MGL; [2]): 0.043 µM |
| O=C(c1ccc(-c2ccccc2)cc1)N1CC(N2CCN(C(=O)C3CC3(F)F)CC2)C1 (stereo not drawn) [Cpd 1256] | 808 |  | Kd (mutant MGL; [4]): 0.393 µM |
| O=C(c1ccc(-c2ccc(C(F)(F)F)cc2)cc1)N1CC(N2CCN(C(=O)c3nccs3)CC2)C1 [Cpd 150, 1-(1,3-Thiazol-2-ylcarbonyl)-4-(1-{[4′-(trifluoromethyl)biphenyl-4-yl]carbonyl}azetidin-3-yl)piperazine] | < 5 | 0.0033 |  |
| Cn1nc(-c2ccc(F)cc2)c2cc(C(=O)N3CC(N4CCN(C(=O)c5nccs5)CC4)C3)ccc21 [Cpd 1195] | 120 | 0.023 |  |
| NC(=O)c1cccc(-n2ccc3cc(C(=O)N4CC(N5CCN(C(=O)c6ccccc6)CC5)C4)ccc32)c1 [Cpd 594, 3-[5-({3-[4-(Phenylcarbonyl)piperazin-1-yl]azetidin-1-yl}carbonyl)-1H-indol-1-yl]benzamide] | 449 |  | Kd (mutant MGL; [5]): 0.743 µM |
| Cc1nc(-c2ccccc2F)sc1C(=O)N1CC(N2CCN(C(=O)c3nccs3)CC2)C1 [Cpd 1202] | 152 | 0.065 |  |
| O=C(c1ccc2c(ccn2-c2cccnc2)c1)N1CC(N2CCN(C(=O)c3nccs3)CC2)C1 [Cpd 1192, 1-Pyridin-3-yl-5-({3-[4-(1,3-thiazol-2-ylcarbonyl)piperazin-1-yl]azetidin-1-yl}carbonyl)-1H-indole] | 109 |  | Kd (mutant MGL; [3]): 0.035 µM |
| O=C(c1ccc(Oc2cc(C(F)(F)F)ccn2)cc1)N1CC(N2CCN(C(=O)c3cscn3)CC2)C1 [Cpd 769] | 725 | 2 |  |
| O=C(c1ccc2c(ccn2-c2cc(F)ccc2F)c1)N1CC(N2CCN(C(=O)c3nccs3)CC2)C1 [Cpd 1373] | < 5 |  | Kd (mutant MGL; [5]): 0.004 µM |
| O=C(c1ccc2c(c1)CCN2C(=O)C1CC1)N1CC(N2CCN(C(=O)c3nccs3)CC2)C1 [Cpd 773] | 845 | 0.04 |  |
| Cc1c(C(=O)N2CC(N3CCN(C(=O)c4ccccc4)CC3)C2)oc2ccc(F)cc12 [Cpd 1490] | > 16700 |  | Kd (mutant MGL; [4]): > 31.2 µM |
| O=C(c1ccccc1)N1CCN(C2CN(C(=O)c3cccc4[nH]c(-c5ccc(Cl)cc5)nc34)C2)CC1 [Cpd 607] | 2900 |  | Kd (mutant MGL; [4]): 1 µM |
| Cc1c(C(=O)N2CC(N3CCN(C(=O)c4cscn4)CC3)C2)cccc1-c1ccccc1 [Cpd 1285] | 2320 | 2.45 |  |

The next lines start with results.

| IC50 [1] [nM] | Kd (mutant MGL; [6]) [µM] | Compound | other results |
| --- | --- | --- | --- |
| < 5 |  | O=C(c1ccc2c(-c3cccc(F)c3)c[nH]c2c1)N1CC(N2CCN(C(=O)c3nccs3)CC2)C1 [Cpd 1319] | Kd (mutant MGL; [2]): 0.001 µM |
| 1720 |  | O=C(c1ccccc1)N1CCN(C2CN(C(=O)c3ccc4c(ccn4-c4ccncc4)c3)C2)CC1 [Cpd 603, 5-({3-[4-(Phenylcarbonyl)piperazin-1-yl]azetidin-1-yl}carbonyl)-1-pyridin-4-yl-1H-indole] | Kd (mutant MGL; [3]): 0.448 µM |
| 4330 |  | O=C(c1ccccc1)N1CCN(C2CN(C(=O)c3cccc4[nH]c(-c5cccc(F)c5)nc34)C2)CC1 [Cpd 609] | Kd (mutant MGL; [4]): 1 µM |
| 307 | 0.009 | Cc1cn(-c2ccc(F)cc2)c2ccc(C(=O)N3CCN(C4CN(C(=O)c5cscn5)C4)CC3)cc12 [Cpd 1230, 1-(4-Fluorophenyl)-3-methyl-5-({4-[1-(1,3-thiazol-4-ylcarbonyl)azetidin-3-yl]piperazin-1-yl}carbonyl)-1H-indole] |  |
| 1610 |  | Cc1nc(-c2ccncc2)sc1C(=O)N1CC(N2CCN(C(=O)c3nccs3)CC2)C1 [Cpd 1272] | Kd (mutant MGL; [3]): 0.399 µM |
| 862 | 0.221 | Cc1cc(-c2cccc(C(F)(F)F)c2)ccc1C(=O)N1CCN(C2CN(C(=O)c3nccs3)C2)CC1 [Cpd 1260] |  |
| 2490 | 2.11 | O=C(c1ccccc1)N1CCN(C2CN(C(=O)c3ccc(F)c(Cc4ccc(C(F)(F)F)cc4)c3)C2)CC1 [Cpd 563] |  |
| 51 |  | O=C(c1ccccc1)N1CCN(C2CN(C(=O)c3ccc4c(cnn4-c4cccc(OC(F)(F)F)c4)c3)C2)CC1 [Cpd 576, 5-({3-[4-(Phenylcarbonyl)piperazin-1-yl]azetidin-1-yl}carbonyl)-1-[3-(trifluoromethoxy)phenyl]-1H-indazole] | Kd (mutant MGL; [5]): 0.088 µM |
| 1980 | 6.42 | O=C(c1cscn1)N1CCN(C2CN(C(=O)c3cc(-c4ccccc4)ccc3F)C2)CC1 [Cpd 1280] |  |
| 12700 |  | N#Cc1ccc(N2CCC(C(=O)N3CC(N4CCN(C(=O)c5cscn5)CC4)C3)CC2)cc1 [Cpd 647] | Kd (mutant MGL; [4]): > 31.2 µM |
| 5400 | 10 | O=C(c1ccccc1)N1CCN(C2CN(C(=O)c3ccc(CS(=O)(=O)c4cccc(C(F)(F)F)c4)cc3)C2)CC1 [Cpd 564] |  |
| 3310 | 0.5 | O=C(c1ccc2[nH]c(C3CCCCC3)nc2c1)N1CCN(C2CN(C(=O)c3nccs3)C2)CC1 [Cpd 827] |  |
| 540 |  | O=C(c1ccc2c(N3CCSCC3)ncnc2c1)N1CC(N2CCN(C(=O)c3nccs3)CC2)C1 [Cpd 951, 7-({3-[4-(1,3-Thiazol-2-ylcarbonyl)piperazin-1-yl]azetidin-1-yl}carbonyl)-4-thiomorpholin-4-ylquinazoline] | Kd (mutant MGL; [2]): 0.117 µM |
| > 16700 |  | Cc1cc2nc(C(=O)N3CC(N4CCN(C(=O)c5ccc[nH]5)CC4)C3)cn2cc1Br [Cpd 1451] | Kd (mutant MGL; [5]): > 16.2 µM |
| 4130 | 3.33 | O=C(c1cnn(-c2ccccc2)n1)N1CC(N2CCN(C(=O)c3nccs3)CC2)C1 [Cpd 1300] |  |
| 5 |  | O=C(c1ccc2nn(Cc3ccc(C(F)(F)F)cc3)cc2c1)N1CC(N2CCN(C(=O)c3nccs3)CC2)C1 [Cpd 1037, 5-({3-[4-(1,3-Thiazol-2-ylcarbonyl)piperazin-1-yl]azetidin-1-yl}carbonyl)-2-[4-(trifluoromethyl)benzyl]-2H-indazole] | Kd (mutant MGL; [2]): 0.022 µM |
| 4950 |  | O=C(c1ccc(-n2ccc(C(F)(F)F)n2)cc1)N1CC(N2CCN(C(=O)c3cscn3)CC2)C1 [Cpd 1302] | Kd (mutant MGL; [4]): 2.5 µM |
| 10400 | 1.05 | O=C(c1ccc2c(c1)[nH]c(=O)n2CC(F)(F)F)N1CC(N2CCN(C(=O)c3cscn3)CC2)C1 [Cpd 943] |  |
| 2100 | 0.769 | O=C(c1cscn1)N1CC(N2CCN(C(=O)c3cc4cc(Cl)ccc4o3)CC2)C1 [Cpd 809] |  |
| 530 | 0.781 | O=C(c1ccc(Oc2ccc(Cl)cn2)cc1)N1CC(N2CCN(C(=O)c3cscn3)CC2)C1 [Cpd 757] |  |
